For seven compounds, ED50 results are on record in patent EP0029303B1, “1,2,4-Triazole derivatives, processes for their production and pharmaceutical compositions containing them” (GLAXO GROUP LIMITED, priority 1979, dated 1981).

What is called ED50 is the dose that gives a 50% effect, or the effect in half of the subjects. Low values mean an effect at a small dose, high ones a need for a large dose.

The test system of this experiment is histamine induced gastric acid secretion. As to the kind of experiment: inhibition of histamine induced gastric acid secretion in the perfused rat stomach preparation. The experiment is classed as in vivo. The note with it: sodium pentobarbitone anaesthesia. The source says:
Certain novel heterocyclic derivatives having a structure different from the compounds referred to above, have now been found which have potent activity as H2-antagonists.
The results obtained for a representative number of compounds according to the invention are given below: […]
As to `CCCCNC(=O)CCCCCNCc1cccc(OCCCNc2nc(N)nn2C)c1` [1 (g)], the ED50 is 0.25 mg/kg.
In the case of `CN(Cc1ccco1)Cc1ccc(CSCCNc2nc(CO)nn2C)o1` [Example 6, 5-[[2-[[[5-[[N-Methyl(2-furanylmethyl)amino]methyl]-2-furanyl]methyl]thio]ethyl]amino]-1-methyl-1 H-1,2,4-triazole-3-methanol] it was 0.077 mg/kg; in that of `CCCCCCCCCCCCNCc1cccc(OCCCNc2nc(N)nn2C)c1` [1 (d), 1-methyl-N^5-[3-[3-[(dodecylamino)methyl]phenoxy]-propyl]-1H-1,2 4-triazoie-3,5-diamine], 0.075 mg/kg; in that of `Cn1nc(N)nc1NCCCOc1cccc(CNCc2ccc(CO)o2)c1` [Example 2 (a), 5-[[3-[3-[(3-Amino-1-methyl-1,2,4-triazol-5-yl)-amino]propoxy]phenylmethyl]aminomethyl]furan-2-methanol], 0.19 mg/kg.
For `Cn1nc(N)nc1NCCCOc1cccc(CNCc2ccc[nH]2)c1` [2 (d), 1-methyl-N5-[3-[3-[(1H-pyrrol-2-yl-methyl)amino-methyl]phenoxy]propyl]-1H-1,2,4-triazole-3,5-diamine] the value was 0.014 mg/kg; for `Cn1nc(N)nc1NCCCOc1cccc(CNCc2ccco2)c1` [1 (b), 1-methyl-N^5-[3-[3-[(2-furanylmethyl)aminomethyl]phenoxy]propyl)-1H-1,2,4-triazole-3,5-diamine], 0.095 mg/kg; for `Cn1nc(N=Cc2ccncc2)nc1NCCCOc1cccc(CNCc2ccco2)c1` [Example 5, 1-Methyl-N3-(4-pyridylmethylene)-N^5-[3-[3-[(2-furanylmethyt)-aminomethyl)phenoxy]propyl]-1 H-1,2,4-triazole-3,5-diamine], 0.18 mg/kg.
